Earlier results as cited in patent publication US9044449B2, “X-ray contrast media compositions and methods of using the same to treat, reduce or delay the onset of CNS inflammation and inflammation associated conditions” (3E THERAPEUTICS CORPORATION, priority 2011, dated 2015).
Residues, ends and D or L forms follow the SMILES beside them.

How the values were obtained:
TNF-alpha = conditions: in vitro
[1] = system: allergen induced nasal obstruction; conditions: used as a nasal spray, in vivo
mast cell degranulation = conditions: in vitro; immunological and non-immunological stimuli
[2] = target: angiotensin converting enzyme (ACE) (Homo sapiens, UniProt P12821); conditions: in vitro; FIG. 2 reproduced from Lasser et al. 1990
Sequence of angiotensin converting enzyme (ACE) (P12821 30-1306, species assumed): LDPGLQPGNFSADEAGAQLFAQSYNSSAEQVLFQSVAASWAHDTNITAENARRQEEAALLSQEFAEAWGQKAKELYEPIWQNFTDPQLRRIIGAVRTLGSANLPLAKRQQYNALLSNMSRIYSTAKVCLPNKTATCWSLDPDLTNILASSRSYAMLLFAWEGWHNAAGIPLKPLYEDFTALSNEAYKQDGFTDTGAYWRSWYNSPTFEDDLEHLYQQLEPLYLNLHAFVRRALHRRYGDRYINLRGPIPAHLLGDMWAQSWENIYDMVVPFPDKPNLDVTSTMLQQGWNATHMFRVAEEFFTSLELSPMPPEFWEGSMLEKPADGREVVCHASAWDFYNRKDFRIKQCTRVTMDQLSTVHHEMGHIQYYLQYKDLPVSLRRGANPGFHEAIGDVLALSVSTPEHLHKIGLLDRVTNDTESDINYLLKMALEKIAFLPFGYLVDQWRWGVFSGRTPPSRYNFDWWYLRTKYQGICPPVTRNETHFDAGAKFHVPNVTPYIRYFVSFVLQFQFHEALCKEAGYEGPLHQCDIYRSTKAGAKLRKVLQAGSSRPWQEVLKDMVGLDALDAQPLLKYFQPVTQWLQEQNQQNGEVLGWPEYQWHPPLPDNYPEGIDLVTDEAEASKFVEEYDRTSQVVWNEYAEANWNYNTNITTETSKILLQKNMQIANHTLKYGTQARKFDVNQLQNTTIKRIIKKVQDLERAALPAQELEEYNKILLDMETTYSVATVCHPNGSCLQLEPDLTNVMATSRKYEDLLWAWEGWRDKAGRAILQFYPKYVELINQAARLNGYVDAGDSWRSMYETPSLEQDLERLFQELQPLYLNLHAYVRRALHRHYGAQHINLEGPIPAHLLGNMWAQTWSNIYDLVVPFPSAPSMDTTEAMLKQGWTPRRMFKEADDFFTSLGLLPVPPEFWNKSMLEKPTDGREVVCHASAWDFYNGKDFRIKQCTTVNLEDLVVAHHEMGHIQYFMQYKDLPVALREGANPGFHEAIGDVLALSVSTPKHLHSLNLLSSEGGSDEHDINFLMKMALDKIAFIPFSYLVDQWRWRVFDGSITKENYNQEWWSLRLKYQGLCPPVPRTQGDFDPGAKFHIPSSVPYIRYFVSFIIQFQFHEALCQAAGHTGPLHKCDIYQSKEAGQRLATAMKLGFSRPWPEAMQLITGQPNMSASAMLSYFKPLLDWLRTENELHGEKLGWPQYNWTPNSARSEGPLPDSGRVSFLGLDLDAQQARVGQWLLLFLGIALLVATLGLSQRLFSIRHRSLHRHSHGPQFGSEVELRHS

O=C(O)c1cc(=O)c2c(OCC(O)COc3cccc4oc(C(=O)O)cc(=O)c34)cccc2o1 [Sodium cromoglycate]
inhibition of TNF-alpha (TNF-alpha): inhibited TNF-alpha in vitro

CC(=O)N[C@@H](CC(=O)[O-])C(=O)N[C@@H](CCC(=O)[O-])C(=O)O.[Mg+2] [magnesium salt of n-acetyl aspartyl glutamic acid] (Ac-Asp-Glu-OH)
effect on allergen induced nasal obstruction [1]: reduce allergen induced nasal obstruction | inhibition of mast cell degranulation (mast cell degranulation): inhibit mast cell degranulation

CCCc1c2oc(C(=O)[O-])cc(=O)c2cc2c(=O)cc(C(=O)[O-])n(CC)c12.[Na+].[Na+] [nedocrimal sodium]
inhibition of TNF-alpha (TNF-alpha): inhibited TNF-alpha in vitro

C[C@H](O)C(=O)Nc1c(I)c(C(=O)NC(CO)CO)c(I)c(C(=O)NC(CO)CO)c1I [purified iopamidol, iopamidol]
inhibition of ACE compared with commercial iopamidol (contains chelator) [2]: diminishes the inhibition ACE significantly
